Assay results reported in ChEMBL document CHEMBL1201862, “PubChem BioAssay data set” (2004).
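Assay format: 96-well plates, 48-hour exposure. GI50 marks 50% less growth.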 Active and inactive are the calls of the source. Cut-off read from the data, not from the text of the source: active = GI50 up to about 1.1 µM and inactive = higher.

Legend:
Assay in all cases: NCI anticancer screen, dose series, 48 h
SF-295 = tested on: SF-295
SF-539 = tested on: SF-539
HOP-62 = tested on: HOP-62
NCI/ADR-RES = tested on: NCI/ADR-RES
SK-OV-3 = tested on: SK-OV-3
HCT-15 = tested on: HCT-15
MDA-MB-231 = tested on: MDA-MB-231
SNB-19 = tested on: SNB-19
786-0 = tested on: 786-0
NCI-H23 = tested on: NCI-H23
U-251 = tested on: U-251
RXF 393 = tested on: RXF 393
SNB-75 = tested on: SNB-75
HL-60 = tested on: HL-60
SN12C = tested on: SN12C
HCC 2998 = tested on: HCC 2998
ACHN = tested on: ACHN
PC-3 = tested on: PC-3
HOP-92 = tested on: HOP-92
CCRF-CEM = tested on: CCRF-CEM
NCI-H226 = tested on: NCI-H226
CAKI-1 = tested on: CAKI-1
OVCAR-5 = tested on: OVCAR-5
OVCAR-4 = tested on: OVCAR-4
MOLT-4 = tested on: MOLT-4
COLO 205 = tested on: COLO 205
MDA-MB-435 = tested on: MDA-MB-435
DU-145 = tested on: DU-145
UACC-62 = tested on: UACC-62
OVCAR-3 = tested on: OVCAR-3
A549 = tested on: A549
LOX IMVI = tested on: LOX IMVI
T47D = tested on: T47D
SF-268 = tested on: SF-268
EKVX = tested on: EKVX
K562 = tested on: K562
HT-29 = tested on: HT-29
SK-MEL-28 = tested on: SK-MEL-28
OVCAR-8 = tested on: OVCAR-8
UACC-257 = tested on: UACC-257
Malme-3M = tested on: Malme-3M
SR = tested on: SR
KM12 = tested on: KM12
MCF7 = tested on: MCF7
NCI-H522 = tested on: NCI-H522
BT-549 = tested on: BT-549
SK-MEL-5 = tested on: SK-MEL-5
M14 = tested on: M14
SK-MEL-2 = tested on: SK-MEL-2
Hs-578T = tested on: Hs-578T
HCT-116 = tested on: HCT-116
RPMI-8226 = tested on: RPMI-8226
TK-10 = tested on: TK-10
IGROV-1 = tested on: IGROV-1
UO-31 = tested on: UO-31
MDA-N = tested on: MDA-N
SW-620 = tested on: SW-620
A498 = tested on: A498
NCI-H460 = tested on: NCI-H460

O=C1NC(N2CCCC(CO)C2)=N/C1=C\c1cccs1 (stereo not drawn)
GI50 (SF-295): > 100 µM (inactive)
GI50 (SF-539): > 100 µM (inactive)
GI50 (HOP-62): > 100 µM (inactive)
GI50 (NCI/ADR-RES): > 100 µM (inactive)
GI50 (SK-OV-3): > 100 µM (inactive)
GI50 (HCT-15): > 100 µM
GI50 (MDA-MB-231): > 100 µM (inactive)
GI50 (SNB-19): > 100 µM (inactive)
GI50 (786-0): > 100 µM (inactive)
GI50 (NCI-H23): > 100 µM (inactive)
GI50 (U-251): > 100 µM (inactive)
GI50 (RXF 393): > 100 µM (inactive)
GI50 (SNB-75): 98.2 µM (inactive)
GI50 (HL-60): > 100 µM (inactive)
GI50 (SN12C): > 100 µM (inactive)
GI50 (HCC 2998): > 100 µM (inactive)
GI50 (ACHN): > 100 µM (inactive)
GI50 (PC-3): > 100 µM (inactive)
GI50 (HOP-92): > 100 µM (inactive)
GI50 (CCRF-CEM): > 100 µM (inactive)
GI50 (NCI-H226): > 100 µM (inactive)
GI50 (CAKI-1): > 100 µM (inactive)
GI50 (OVCAR-5): > 100 µM (inactive)
GI50 (OVCAR-4): > 100 µM (inactive)
GI50 (MOLT-4): > 100 µM (inactive)
GI50 (COLO 205): > 100 µM (inactive)
GI50 (MDA-MB-435): > 100 µM (inactive)
GI50 (DU-145): > 100 µM (inactive)
GI50 (UACC-62): > 100 µM (inactive)
GI50 (OVCAR-3): > 100 µM (inactive)
GI50 (A549): > 100 µM (inactive)
GI50 (LOX IMVI): > 100 µM (inactive)
GI50 (T47D): > 100 µM (inactive)
GI50 (SF-268): > 100 µM (inactive)
GI50 (EKVX): > 100 µM (inactive)
GI50 (K562): > 100 µM (inactive)
GI50 (HT-29): > 100 µM (inactive)
GI50 (SK-MEL-28): > 100 µM (inactive)
GI50 (OVCAR-8): > 100 µM (inactive)
GI50 (UACC-257): > 100 µM (inactive)
GI50 (Malme-3M): > 100 µM (inactive)
GI50 (SR): > 100 µM (inactive)
GI50 (KM12): > 100 µM (inactive)
GI50 (MCF7): > 100 µM (inactive)
GI50 (NCI-H522): > 100 µM (inactive)
GI50 (BT-549): > 100 µM (inactive)
GI50 (SK-MEL-5): > 100 µM (inactive)
GI50 (M14): > 100 µM (inactive)
GI50 (SK-MEL-2): > 100 µM (inactive)
GI50 (Hs-578T): > 100 µM (inactive)
GI50 (HCT-116): > 100 µM (inactive)
GI50 (RPMI-8226): > 100 µM (inactive)
GI50 (TK-10): > 100 µM (inactive)
GI50 (IGROV-1): > 100 µM (inactive)
GI50 (UO-31): > 100 µM (inactive)
GI50 (MDA-N): > 100 µM (inactive)
GI50 (SW-620): > 100 µM (inactive)

CCOC(=O)c1ccc(N(CCOS(C)(=O)=O)CCOS(C)(=O)=O)cc1
GI50 (SF-295): 51.1 µM (inactive)
GI50 (SF-539): 25.1 µM (inactive)
GI50 (NCI/ADR-RES): 35.7 µM (inactive)
GI50 (HCT-15): 40.9 µM
GI50 (MDA-MB-231): 91.2 µM (inactive)
GI50 (SNB-19): 90.6 µM (inactive)
GI50 (NCI-H23): 43.3 µM (inactive)
GI50 (U-251): 35.9 µM (inactive)
GI50 (RXF 393): 20 µM (inactive)
GI50 (HL-60): 39.9 µM (inactive)
GI50 (HCC 2998): 60.3 µM (inactive)
GI50 (ACHN): 26 µM (inactive)
GI50 (PC-3): 50.7 µM (inactive)
GI50 (HOP-92): 37.6 µM (inactive)
GI50 (CCRF-CEM): 23.9 µM (inactive)
GI50 (CAKI-1): 12.6 µM (inactive)
GI50 (OVCAR-5): 34.9 µM (inactive)
GI50 (OVCAR-4): 35.7 µM (inactive)
GI50 (MOLT-4): 17.8 µM (inactive)
GI50 (COLO 205): 64.9 µM (inactive)
GI50 (MDA-MB-435): 52.2 µM (inactive)
GI50 (DU-145): 21.8 µM (inactive)
GI50 (UACC-62): 27.8 µM (inactive)
GI50 (OVCAR-3): 36.6 µM (inactive)
GI50 (A549): 53 µM (inactive)
GI50 (LOX IMVI): 48.4 µM (inactive)
GI50 (T47D): 43 µM (inactive)
GI50 (SF-268): 26.1 µM (inactive)
GI50 (EKVX): 58.3 µM (inactive)
GI50 (K562): 24.3 µM (inactive)
GI50 (HT-29): 51.6 µM (inactive)
GI50 (SK-MEL-28): > 100 µM (inactive)
GI50 (OVCAR-8): 47 µM (inactive)
GI50 (UACC-257): > 100 µM (inactive)
GI50 (Malme-3M): 38.8 µM (inactive)
GI50 (KM12): 67.9 µM (inactive)
GI50 (MCF7): 47.3 µM (inactive)
GI50 (NCI-H522): 12.9 µM (inactive)
GI50 (BT-549): 40.6 µM (inactive)
GI50 (SK-MEL-5): 42.2 µM (inactive)
GI50 (M14): 53.1 µM (inactive)
GI50 (SK-MEL-2): 55.2 µM (inactive)
GI50 (A498): 35.2 µM (inactive)
GI50 (Hs-578T): 29.3 µM (inactive)
GI50 (HCT-116): 30.1 µM (inactive)
GI50 (RPMI-8226): 25.1 µM (inactive)
GI50 (TK-10): 83.4 µM (inactive)
GI50 (IGROV-1): 88.5 µM (inactive)
GI50 (UO-31): 20.5 µM (inactive)
GI50 (MDA-N): 45.6 µM (inactive)
GI50 (NCI-H460): 37 µM (inactive)
GI50 (SW-620): 32 µM (inactive)

COc1cc2c3c(n(CCCNCCO)c(=O)c2cc1OC)-c1cc2c(cc1C3=O)OCO2
GI50 (SF-295): < 0.01 µM (active)
GI50 (SF-539): 0.0381 µM (active)
GI50 (NCI/ADR-RES): 0.546 µM (active)
GI50 (MDA-MB-231): 0.537 µM (active)
GI50 (SNB-19): 0.012 µM (active)
GI50 (786-0): < 0.01 µM (active)
GI50 (NCI-H23): < 0.01 µM (active)
GI50 (HL-60): < 0.0465 µM (active)
GI50 (SN12C): < 0.01 µM (active)
GI50 (HCC 2998): 0.536 µM (active)
GI50 (ACHN): < 0.01 µM (active)
GI50 (PC-3): 1.02 µM (active)
GI50 (CCRF-CEM): < 0.01 µM (active)
GI50 (NCI-H226): 0.206 µM (active)
GI50 (OVCAR-5): 0.384 µM (active)
GI50 (MOLT-4): < 0.01 µM (active)
GI50 (COLO 205): 0.392 µM (active)
GI50 (DU-145): < 0.01 µM (active)
GI50 (UACC-62): 0.0236 µM (active)
GI50 (OVCAR-3): 0.813 µM (active)
GI50 (LOX IMVI): < 0.01 µM (active)
GI50 (T47D): 0.0165 µM (active)
GI50 (SF-268): < 0.0338 µM (active)
GI50 (HT-29): < 0.0311 µM (active)
GI50 (OVCAR-8): 0.158 µM (active)
GI50 (SR): < 0.01 µM (active)
GI50 (KM12): 0.541 µM (active)
GI50 (MCF7): < 0.01 µM (active)
GI50 (NCI-H522): < 0.038 µM (active)
GI50 (BT-549): 0.935 µM (active)
GI50 (SK-MEL-5): 0.19 µM (active)
GI50 (M14): 0.0422 µM (active)
GI50 (A498): 0.378 µM (active)
GI50 (Hs-578T): 1.71 µM (inactive)
GI50 (TK-10): 1.38 µM (inactive)
GI50 (IGROV-1): 0.0935 µM (active)
GI50 (MDA-N): 0.611 µM (active)
GI50 (NCI-H460): < 0.01 µM (active)
GI50 (SW-620): 0.16 µM (active)
